Literature values, collected in patent US7547545B2, “Directed in vitro differentiation of marrow stromal cells into neural cell progenitors” (priority 2001, dated 2009).

Columns and labels:
C6 glioma cells = details: Sharma et al. 1987 and Ghosh et al. 1997
[1] = tested on: medulloblastoma cell line, MCD-1; details: MCD-1 cells, Moore et al. 1996
prostate tumor cells = details: Cox et al. 1999

Structure (SMILES)	neural differentiation (C6 glioma cells)	extension of processes [1]	neuroendocrine characteristics (prostate tumor cells)
CCCC(=O)Nc1ncnc2c1ncn2[C@@H]1O[C@@H]2COP(=O)(O)O[C@H]2[C@H]1OC(=O)CCC [dbcAMP, dibutyryl cyclic AMP]	induced neural differentiation	greatly increase the extension of processes	induce prostate tumor cells to assume many of the characteristics of neuroendocrine cells
CNC[C@H](O)c1ccc(O)c(O)c1 [epinephrine]	–	–	induce prostate tumor cells to assume many of the characteristics of neuroendocrine cells
CC(C)NCC(O)c1ccc(O)c(O)c1 (centres unmarked) [isoproterenol]	–	–	induce prostate tumor cells to assume many of the characteristics of neuroendocrine cells
